Structures can show the parent of a compound that is named as a salt.

19 compounds from ChEMBL document CHEMBL4392822, “HSP60/10 chaperonin systems are inhibited by a variety of approved drugs, natural products, and known bioactive molecules” (Bioorg Med Chem Lett, 2019) can be followed below.

One experiment deals with Chaperonin GroEL (Escherichia coli (strain K12), UniProt P0A6F5).
The target in experiment [1] is T1, E. coli GroEL/ES (Escherichia coli, UniProt P0A6F5).
Description: (§1) Inhibition of Escherichia coli GroEL expressed in Escherichia coli DH5alpha/Escherichia coli GroES expressed in Escherichia coli BL21 (DE3) assessed as reduction in GroEL/GroES-mediated denatured rhodanese refolding by measuring rhodanese enzyme activity after 45 mins by Fe(SCN)3 dye based spectrometric analysis
Experiment [2] concerns the target T1, E. coli GroEL/ES. The source holds these as a separate data set.
Description: (§2) Inhibition of Escherichia coli GroEL expressed in Escherichia coliDH5alpha/Escherichia coli GroES expressed in Escherichia coli BL21 (DE3) assessed as reduction in GroEL/GroES-mediated denatured soluble pig heart MDH refolding by measuring MDH enzyme activity using sodium mesoxalate as substrate after 20 to 40 mins by malachite green dye based spectrometric analysis
For experiment [3], the target named is HSP60/HSP10 (Homo sapiens, UniProt P10809).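 Further: His-tagged human HSP60 with HSP10 refolding denatured MDH, read as MDH activity on mesoxalate by malachite green spectrometry, inhibition of refolding.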
Description: (§3) Inhibition of human N-terminal octa-His-tagged HSP60 expressed in Escherichia coli Rosetta(DE3) pLysS/human HSP10 expressed in Escherichia coli Rosetta(DE3) assessed as reduction in HSP60/HSP10-mediated denatured MDH refolding by measuring MDH enzyme activity using sodium mesoxalate as substrate after 40 to 60 mins by malachite green dye based spectrometric analysis
For experiment [4], the target named is T2, Thiosulfate sulfurtransferase (Homo sapiens, UniProt Q16762).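 Further: native rhodanese of unspecified species, enzyme activity read after 45 min by spectrophotometric detection of Fe(SCN)3 colour, IC50 reflects activity reduction.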
T2 sequence (Q16762 whole entry): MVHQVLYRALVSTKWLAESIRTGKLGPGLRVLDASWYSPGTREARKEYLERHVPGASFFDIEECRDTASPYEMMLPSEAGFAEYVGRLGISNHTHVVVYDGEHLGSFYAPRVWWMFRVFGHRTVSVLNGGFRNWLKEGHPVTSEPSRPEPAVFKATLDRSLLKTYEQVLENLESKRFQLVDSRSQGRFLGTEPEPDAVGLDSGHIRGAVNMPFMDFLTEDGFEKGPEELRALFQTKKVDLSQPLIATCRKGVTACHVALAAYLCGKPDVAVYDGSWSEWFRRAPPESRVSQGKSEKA
Format: ADME.
Description: Inhibition of native rhodanese (unknown origin) assessed as reduction in rhodanese enzyme activity after 45 mins by Fe(SCN)3 dye based spectrometric analysis

For experiment [5], the target named is GroEL/GroES. Details: species or system Escherichia coli.
Description: as §1
Experiment [6] concerns the target GroEL/GroES. Details: species or system Escherichia coli. This is another data set of the same source.
Description: as §2
Experiment [7] deals with HSP60/HSP10 (Homo sapiens, UniProt P10809+P61604).
Chain of HSP60/HSP10 (Homo sapiens, UniProt P10809+P61604) (P10809 whole entry): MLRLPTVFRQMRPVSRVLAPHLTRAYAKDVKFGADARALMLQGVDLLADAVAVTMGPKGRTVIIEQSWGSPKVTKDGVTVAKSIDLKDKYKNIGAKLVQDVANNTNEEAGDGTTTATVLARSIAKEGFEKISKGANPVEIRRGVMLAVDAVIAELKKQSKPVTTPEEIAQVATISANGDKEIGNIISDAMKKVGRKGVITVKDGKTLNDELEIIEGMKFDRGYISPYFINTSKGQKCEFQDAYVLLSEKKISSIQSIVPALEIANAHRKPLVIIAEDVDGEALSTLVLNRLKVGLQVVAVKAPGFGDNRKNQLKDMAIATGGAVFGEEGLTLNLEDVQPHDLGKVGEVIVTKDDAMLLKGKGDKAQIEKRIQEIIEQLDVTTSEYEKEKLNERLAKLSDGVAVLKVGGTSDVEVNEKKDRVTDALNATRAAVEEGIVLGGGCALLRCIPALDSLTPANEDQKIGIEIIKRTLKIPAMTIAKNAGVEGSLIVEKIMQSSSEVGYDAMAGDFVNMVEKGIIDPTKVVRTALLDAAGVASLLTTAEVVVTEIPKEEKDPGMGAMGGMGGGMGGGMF
Chain of HSP60/HSP10 (Homo sapiens, UniProt P10809+P61604) (P61604 whole entry): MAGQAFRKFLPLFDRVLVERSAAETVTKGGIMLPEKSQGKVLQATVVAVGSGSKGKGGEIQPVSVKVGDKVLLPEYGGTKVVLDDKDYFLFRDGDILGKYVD
Description: as §3

T1 sequence (P0A6F5 whole entry, looked up): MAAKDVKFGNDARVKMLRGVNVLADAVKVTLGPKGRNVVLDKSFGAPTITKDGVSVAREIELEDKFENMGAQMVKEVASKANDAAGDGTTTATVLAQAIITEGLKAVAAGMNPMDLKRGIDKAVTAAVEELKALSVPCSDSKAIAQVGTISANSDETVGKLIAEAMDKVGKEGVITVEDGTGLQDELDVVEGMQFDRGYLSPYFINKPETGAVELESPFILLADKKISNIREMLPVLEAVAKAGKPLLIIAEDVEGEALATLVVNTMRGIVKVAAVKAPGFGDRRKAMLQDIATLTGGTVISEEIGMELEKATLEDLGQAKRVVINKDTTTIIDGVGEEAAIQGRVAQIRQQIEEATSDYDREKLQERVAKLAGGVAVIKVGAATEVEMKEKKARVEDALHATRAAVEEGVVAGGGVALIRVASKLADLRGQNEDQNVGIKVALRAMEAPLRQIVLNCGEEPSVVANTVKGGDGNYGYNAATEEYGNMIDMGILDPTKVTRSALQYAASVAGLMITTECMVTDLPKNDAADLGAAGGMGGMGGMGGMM
Chain of Chaperonin GroEL (P0A6F5 whole entry): as the sequence (P0A6F5 whole entry, looked up) above
Chain of HSP60/HSP10 (Homo sapiens, UniProt P10809) (P10809 whole entry): as the sequence (P10809 whole entry) above
Chain of HSP60/HSP10 (Homo sapiens, UniProt P10809) (P61604 whole entry, further chain): as the sequence (P61604 whole entry) above
Description for Chaperonin GroEL: Inhibition of ATPase activity of Escherichia coli GroEL expressed in Escherichia coliDH5alpha incubated for 60 mins using ATP by spectrometric analysis

One may read the IC50 as the concentration at which inhibition is half-maximal. Read a high IC50 as weaker potency in that assay. With `C=C1CC[C@H](O)C/C1=C/C=C1\CCC[C@]2(C)[C@@H]([C@H](C)CCCC(C)C)CC[C@@H]12` [CHOLECALCIFEROL], the half-inhibitory concentration (IC50) at Chaperonin GroEL was more than 250 µM; at E. coli GroEL/ES [1] it was 31 µM; against E. coli GroEL/ES [2] it was 22 µM; against HSP60/HSP10 [3], 11 µM; in experiment [4], more than 100 µM.

Take `COc1cc(/C=C/C(=O)CC(=O)/C=C/c2ccc(O)c(OC)c2)ccc1O` [CURCUMIN]: the 50% inhibitory concentration (IC50) at Chaperonin GroEL was more than 250 µM; on E. coli GroEL/ES [1] it was 2.9 µM; on E. coli GroEL/ES [2], 3.1 µM; against HSP60/HSP10 [3] it was 8.3 µM; in experiment [4] it was 56 µM.

`Oc1ccc(Cl)cc1Cc1cc(Cl)ccc1O` [DICHLOROPHEN]: the half-maximal inhibitory concentration (IC50) against Chaperonin GroEL is more than 250 µM; against E. coli GroEL/ES [1], 66 µM; against E. coli GroEL/ES [2] it was 24 µM; at HSP60/HSP10 [3] it was 17 µM; in experiment [4], more than 100 µM.

With `O=C(O[C@@H]1Cc2c(O)cc(O)cc2O[C@@H]1c1cc(O)c(O)c(O)c1)c1cc(O)c(O)c(O)c1` [EPIGALOCATECHIN GALLATE], the IC50 was more than 250 µM on Chaperonin GroEL; 0.58 µM against E. coli GroEL/ES [1]; 0.36 µM at E. coli GroEL/ES [2]; 2.3 µM against HSP60/HSP10 [3]; 7.3 µM in experiment [4].

As to `CC[C@H]1OC(=O)[C@H](C)[C@@H](O[C@H]2C[C@@](C)(OC)[C@@H](O)[C@H](C)O2)[C@H](C)[C@@H](O[C@@H]2O[C@H](C)C[C@H](N(C)C)[C@H]2O)[C@](C)(O)C[C@@H](C)C(=O)[C@H](C)[C@@H](O)[C@]1(C)O` [ERYTHROMYCIN], the IC50 was more than 250 µM against Chaperonin GroEL; 178 µM on E. coli GroEL/ES [1]; more than 100 µM at E. coli GroEL/ES [2]; more than 100 µM at HSP60/HSP10 [3]; more than 100 µM in experiment [4].

As for `C=C(CC)C(=O)c1ccc(OCC(=O)O)c(Cl)c1Cl` [ETHACRYNIC ACID], the 50% inhibitory concentration (IC50) at Chaperonin GroEL was more than 250 µM; against E. coli GroEL/ES [1], 4.7 µM; against E. coli GroEL/ES [2] it was 5.2 µM; against HSP60/HSP10 [3] it was 8.5 µM; in experiment [4], more than 100 µM.

`Cc1cc(-c2ccc(/N=N/c3ccc4c(S(=O)(=O)O)cc(S(=O)(=O)O)c(N)c4c3O)c(C)c2)ccc1/N=N/c1ccc2c(S(=O)(=O)O)cc(S(=O)(=O)O)c(N)c2c1O` [EVANS BLUE]: the IC50 at Chaperonin GroEL turned out to be 161 µM; on E. coli GroEL/ES [1], 0.087 µM; on E. coli GroEL/ES [2], 0.039 µM; against HSP60/HSP10 [3] it was 0.17 µM; in experiment [4], 8.7 µM.

Take `CN(C)c1ccc(C(=C2C=CC(=[N+](C)C)C=C2)c2ccc(N(C)C)cc2)cc1` [GENTIAN VIOLET]: the half-inhibitory concentration (IC50) against Chaperonin GroEL is more than 250 µM; at E. coli GroEL/ES [1], 15 µM; at E. coli GroEL/ES [2] it was 11 µM; against HSP60/HSP10 [3], 5.8 µM; in experiment [4], 16 µM.

`O=c1c(O)c(-c2ccc(O)c(O)c2)oc2c(O)c(O)cc(O)c12` [GOSSYPETIN]: the IC50 against Chaperonin GroEL is more than 250 µM; at E. coli GroEL/ES [1], 0.39 µM; at E. coli GroEL/ES [2], 2.1 µM; against HSP60/HSP10 [3], 7.5 µM; in experiment [4], 0.33 µM.

Turning to `Oc1c(Cl)cc(Cl)c(Cl)c1Cc1c(O)c(Cl)cc(Cl)c1Cl` [HEXACHLOROPHENE], the IC50 on Chaperonin GroEL stood at 153 µM; against E. coli GroEL/ES [1], 4.7 µM; against E. coli GroEL/ES [2] it was 1.4 µM; against HSP60/HSP10 [3] it was 1.3 µM; in experiment [4], 51 µM.

On to `CC[n+]1c(-c2ccccc2)c2cc(N)ccc2c2ccc(N)cc21` [HOMIDIUM BROMIDE], for which the IC50 is more than 250 µM against Chaperonin GroEL; 2.4 µM against E. coli GroEL/ES [1]; more than 100 µM against E. coli GroEL/ES [2]; more than 100 µM against HSP60/HSP10 [3]; 0.83 µM in experiment [4].

For `CC1(C)CCC2=C(O1)c1ccccc1C(=O)C2=O` [LAPACHONE], the IC50 is more than 250 µM on Chaperonin GroEL; 0.59 µM on E. coli GroEL/ES [1]; 1.3 µM against E. coli GroEL/ES [2]; 2.1 µM against HSP60/HSP10 [3]; 0.12 µM in experiment [4].

Turning to `CC1=CC(=O)c2ccccc2C1=O` [MENADIONE], the IC50 against Chaperonin GroEL is more than 250 µM; against E. coli GroEL/ES [1], 2.5 µM; against E. coli GroEL/ES [2], 9 µM; on HSP60/HSP10 [3] it was 15 µM; in experiment [4], 1 µM.

In the case of `O=c1c(O)c(-c2ccc(O)cc2O)oc2cc(O)cc(O)c12` [MORIN], the IC50 was more than 250 µM against Chaperonin GroEL; 5.2 µM against E. coli GroEL/ES [1]; 8.5 µM at E. coli GroEL/ES [2]; 11 µM against HSP60/HSP10 [3]; 57 µM in experiment [4].

On to `CC(COc1ccccc1)N(CCCl)Cc1ccccc1` (centres undefined) [PHENOXYBENZAMINE HYDROCHLORIDE], for which the IC50 on Chaperonin GroEL is more than 250 µM; against E. coli GroEL/ES [1], 129 µM; on E. coli GroEL/ES [2] it was 40 µM; against HSP60/HSP10 [3], 78 µM; in experiment [4] it was more than 100 µM.

In the case of `CC1=CC(=O)c2c(O)cccc2C1=O` [PLUMBAGIN], the IC50 against Chaperonin GroEL was more than 250 µM; against E. coli GroEL/ES [1], 0.29 µM; against E. coli GroEL/ES [2], 3.8 µM; against HSP60/HSP10 [3], 6.3 µM; in experiment [4] it was 0.06 µM.

For `C=CC1=C(C)c2cc3[nH]c(cc4nc(cc5[nH]c(cc1n2)c(C)c5CCC(=O)O)C(CCC(=O)O)=C4C)c(C)c3C=C` [PROTOPORPHYRIN], the IC50 was more than 250 µM at Chaperonin GroEL, 3 µM on GroEL/GroES [5], 4.4 µM against GroEL/GroES [6] and 4.9 µM against HSP60/HSP10 [7].

On to `O=C1c2ccccc2C(=O)c2c(O)c(O)cc(O)c21` [PURPURIN], for which the IC50 on Chaperonin GroEL was more than 250 µM; against E. coli GroEL/ES [1], 4 µM; against E. coli GroEL/ES [2], 15 µM; on HSP60/HSP10 [3] it was 23 µM; in experiment [4], 2.3 µM.

Take `O=C(OC[C@H]1O[C@@H](OC(=O)c2cc(O)c(O)c(OC(=O)c3cc(O)c(O)c(O)c3)c2)[C@H](OC(=O)c2cc(O)c(O)c(OC(=O)c3cc(O)c(O)c(O)c3)c2)[C@@H](OC(=O)c2cc(O)c(O)c(OC(=O)c3cc(O)c(O)c(O)c3)c2)[C@@H]1OC(=O)c1cc(O)c(O)c(OC(=O)c2cc(O)c(O)c(O)c2)c1)c1cc(O)c(O)c(OC(=O)c2cc(O)c(O)c(O)c2)c1` [TANNIC ACID]: the half-inhibitory concentration (IC50) was 137 µM against Chaperonin GroEL; 1 µM against E. coli GroEL/ES [1]; 0.87 µM on E. coli GroEL/ES [2]; 3.8 µM on HSP60/HSP10 [3]; 39 µM in experiment [4].
